From patent US10227359B2, “Tricyclic heterocycles as bet protein inhibitors” (Incyte Corporation, priority 2014, dated 2019)

Tests used:
[1] = test system: KMS.12.BM cell line (human myeloma); test: KMS.12.BM Cell Viability Assay; assay type: cell-based; details: 72 h, KMS.12.BM cells, 3 days, Cell Titer-GLO, read-out: KMS cellular IC50
Protocol: Example B1: KMS.12.BM Cell Viability Assay
KMS.12.BM cell line (human myeloma) was purchased from JCRB (Osaka, Japan) and maintained in RPMI with 10% FBS culture medium. To measure the cytotoxic activity of the compounds through ATP quantitation, the KMS.12.BM cells are plated in the RPMI culture medium at 5000 cells/well/per 100 μL into a 96-well polystyrene clear black tissue culture plate (Greiner-bio-one through VWR, NJ), in the presence or absence of a concentration range of test compounds. After 3 days, […] Cell Titer-GLO Luminescent (Promega, Madison, Wis.) cell culture agent is added to each well for 10 min. at room temperature to stabilize the luminescent signal. This determines the number of viable cells in culture based on quantitation of the ATP present, which signals the presence of metabolically active cells. Luminescence is measured with the Top Count 384 (Packard Bioscience through Perkin Elmer, Boston, Mass.). Compound inhibition is determined relative to cells cultured with no drug and the IC50 reported as the compound concentration required for 50% cell death.

[2] = test system: C-myc in KMS.12.BM cells; test: KMS.12.BM C-myc ELISA Assay; assay type: cell-based; details: Homo sapiens, 2 h
Protocol: KMS.12.BM C-myc ELISA Assay
KMS.12.BM cell line (human myeloma) was purchased from JCRB (Osaka, Japan) and maintained in RPMI with 10% FBS culture medium. To measure the C-myc inhibitory activity of the compounds, the KMS.12.BM cells are plated in the RPMI culture medium at 75000 cells/well/per 200 μL into a 96-well flat bottom polystyrene tissue culture plate (Corning through VWR, NJ), in the presence or absence of a concentration range of test compounds. After 2 h, cells are pelleted and lysed with Cell Extraction Buffer (BioSource, Carlsbad, Calif.) in the presence of protease inhibitors (Life Technologies, Grand Island, N.Y. and Sigma, St Louis, Mo.). Clarified lyses are tested in a C-myc commercial ELISA (Life Technologies, Grand Island, N.Y.). Compound inhibition is determined relative to cells cultured with no drug and the IC50 reported as the compound concentration required for 50% C-myc inhibition.

Row | Structure (SMILES) | IC50 [1] [nM] | IC50 [2] [nM]
1 | Cc1noc(C)c1-c1ccc2nc(N3CCC(N(C)C(=O)C(C)(C)C)CC3)n3c2c1OC[C@@H]3c1ccccn1 [Example 18, N-{1-[(4S)-7-(3,5-dimethylisoxazol-4-yl)-4-pyridin-2-yl-4,5-dihydroimidazo[1,5,4-de][1,4]benzoxazin-2-yl]piperidin-4-yl}-N,2,2-trimethylpropanamide] | ≤ 100 | ≤ 100
2 | CC(=O)N(C)C1CCN(c2nc3ccc(-c4c(C)noc4C)c4c3n2[C@@H](c2ccccn2)CO4)CC1 [Example 6, N-{1-[(4S)-7-(3,5-dimethylisoxazol-4-yl)-4-pyridin-2-yl-4,5-dihydroimidazo[1,5,4-de][1,4]benzoxazin-2-yl]piperidin-4-yl}-N-methylacetamide] | ≤ 100 | ≤ 100
3 | Cc1noc(C)c1-c1ccc2nc(N3CCN(C(=O)C4CCC4)CC3)n3c2c1OC[C@@H]3c1ccccn1 [Example 28, (4S)-2-[4-(cyclobutylcarbonyl)piperazin-1-yl]-7-(3,5-dimethylisoxazol-4-yl)-4-pyridin-2-yl-4,5-dihydroimidazo[1,5,4-de][1,4]benzoxazine] | ≤ 100 | 100 to 1000
4 | CCC(=O)N1CCN(c2nc3ccc(-c4c(C)noc4C)c4c3n2[C@@H](c2ccccn2)CO4)C[C@@H]1C [Example 8, (4S)-7-(3,5-dimethylisoxazol-4-yl)-2-[(3S)-3-methyl-4-propionylpiperazin-1-yl]-4-pyridin-2-yl-4,5-dihydroimidazo[1,5,4-de][1,4]benzoxazine] | ≤ 100 | ≤ 100

Second part, the molecule after the results:

Row | IC50 [1] [nM] | IC50 [2] [nM] | Structure (SMILES)
5 | ≤ 100 | ≤ 100 | CC(=O)N1CCN(c2nc3ccc(-c4c(C)noc4C)c4c3n2[C@@H](c2ccccn2)CO4)C[C@@H]1C [Example 7, (4S)-2-[(3S)-4-acetyl-3-methylpiperazin-1-yl]-7-(3,5-dimethylisoxazol-4-yl)-4-pyridin-2-yl-4,5-dihydroimidazo[1,5,4-de][1,4]benzoxazine]
6 | ≤ 100 | ≤ 100 | Cc1noc(C)c1-c1ccc2nc(N3CCN(C(=O)C(C)C)[C@@H](C)C3)n3c2c1OC[C@@H]3c1ccccn1 [Example 9, (4S)-7-(3,5-dimethylisoxazol-4-yl)-2-[(3S)-4-isobutyryl-3-methylpiperazin-1-yl]-4-pyridin-2-yl-4,5-dihydroimidazo[1,5,4-de][1,4]benzoxazine]
